Among the data in PubChem BioAssay (NCI) are TGI and GI50 values, retold here.

Test systems include CCRF-CEM leukemia; M14 melanoma; MDA-MB-435; HS 578T breast; SW-620 colon; HCT-116 colon; HOP-92 NSCLC; COLO 205 colon; MDA-N; HCT-15 colon.
Holding throughout (assay): DTP human tumour cell line panel, 48 h

Where “and” joins values, the source holds several entries; their conditions need not be identical. Equal values may be shown once.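 Protocol summary: plate cells (96-well), add compound at 5 concentrations, incubate 48 h, interpolate endpoints linearly. GI50 = concentration required for 50% inhibition of growth. TGI denotes the concentration required for complete inhibition of growth.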 Where only a bound is given, the exact number is not on record here.

`Oc1ccc(Cl)cc1C1=NC(/N=C\c2ccccc2)=NC(c2ccccc2)C1` (centres undefined): the TGI in the experiment with CCRF-CEM leukemia, in the experiment on M14 melanoma, with MDA-MB-435, with HS 578T breast, with SW-620 colon and with HCT-116 colon was above 100 µM in each case. For the same compound, the concentration for total growth inhibition (TGI) in the experiment with HOP-92 NSCLC and in the experiment on COLO 205 colon was above 100 µM throughout.
For `CCC[C@@H]1C(=O)N=C(N)N1C(=O)OCc1ccccc1`, the TGI in the experiment with MDA-N, with HCT-15 colon, with MDA-MB-435, in the experiment with HS 578T breast, in the experiment with SW-620 colon and in the experiment with HCT-116 colon was above 100 µM each time. The compound further displayed a total growth inhibition concentration (TGI) with COLO 205 colon above 100 µM.
`O=c1oc2ccccc2c(O)c1C(C/C(CCN1CCCC1)=N\Nc1ccccc1)c1ccccc1` (centres undefined): the total growth inhibition concentration (TGI) in the experiment with CCRF-CEM leukemia was 69.5 µM; with M14 melanoma, above 100 µM; in the experiment with HCT-15 colon, above 100 µM; with SW-620 colon, above 100 µM; in the experiment on HCT-116 colon, above 100 µM; in the experiment on HOP-92 NSCLC, 83.6 µM.
For the compound `COC(=O)C(NC(=O)c1ccccc1)C(c1ccc(Cl)cc1)P(=O)(OC)OC` (centres undefined), the TGI in the experiment on CCRF-CEM leukemia, in the experiment with M14 melanoma, in the experiment with HCT-15 colon, in the experiment on SW-620 colon, with HCT-116 colon and with HOP-92 NSCLC was above 100 µM throughout. Besides, the concentration for total growth inhibition (TGI) in the experiment on COLO 205 colon was above 100 µM.
In the case of `COc1ccc(N2C(=O)C3c4[nH]c5ccccc5c4C4CCCCC4C3C2=O)cc1` (centres undefined), the TGI in the experiment on CCRF-CEM leukemia is 29.1 µM; in the experiment on M14 melanoma, above 100 µM; with HCT-15 colon, above 100 µM; with SW-620 colon, above 100 µM; in the experiment on HCT-116 colon it was 22 µM; with HOP-92 NSCLC, 50.3 µM. Also, the TGI with COLO 205 colon is above 100 µM.
For the compound `CCCCNC(=O)/N=C/c1c(O)c2ccccc2oc1=O`, the concentration for total growth inhibition (TGI) with M14 melanoma, in the experiment with HCT-15 colon, with SW-620 colon, in the experiment on HCT-116 colon, in the experiment with HOP-92 NSCLC and in the experiment with COLO 205 colon was above 100 µM in each case.
With `COc1ccc(C[C@H](N)C(=O)N2C[C@@H](CO)C[C@@H](n3ccc(=O)[nH]c3=O)C2)cc1`, the total growth inhibition concentration (TGI) in the experiment on CCRF-CEM leukemia, in the experiment on M14 melanoma, in the experiment on HCT-15 colon, with SW-620 colon, in the experiment with HCT-116 colon and in the experiment with HOP-92 NSCLC was above 100 µM throughout. The compound further returned a TGI in the experiment with COLO 205 colon above 100 µM.
In the case of `COc1ccc(Sc2ccccc2N)cc1`, the TGI in the experiment with CCRF-CEM leukemia was 83.8 µM; in the experiment with M14 melanoma, above 100 µM; with HCT-15 colon it was above 100 µM; in the experiment on SW-620 colon it was above 100 µM; in the experiment with HCT-116 colon, above 100 µM; in the experiment on HOP-92 NSCLC, 74.4 µM. In the experiment on COLO 205 colon, this compound came in with a TGI of 32.8 µM.
For the compound `C/C=C(/C)C(=O)O[C@H]1[C@H](O)CC(c2ccc3c(c2O)C(O)=C2C(=O)C4(OC)C(O)=C(C(N)=O)C(=O)[C@H](CC(=O)c5ccccc5O)C4CC2[C@@]3(C)OC)O[C@@H]1C` (some centres undefined), the TGI in the experiment on MDA-N is 2.09 µM; with M14 melanoma, 2.13 µM and 1.34 µM; in the experiment with HCT-15 colon, 18.1 µM; with MDA-MB-435, 1.64 µM; in the experiment with SW-620 colon it was 1.13 µM; in the experiment on HCT-116 colon it was 0.0262 µM and 0.0189 µM. In addition, the TGI in the experiment with HOP-92 NSCLC was determined as 0.625 µM; with COLO 205 colon it was 0.0288 µM.
As for `COc1ccc(C2=NN=C3C(c4ccccc4)=Nc4ccccc4N3C2)cc1`, the TGI in the experiment with MDA-N was above 100 µM; with CCRF-CEM leukemia, 8.24 µM; with M14 melanoma, 83.8 µM; in the experiment on HCT-15 colon, above 100 µM; in the experiment on MDA-MB-435, above 100 µM; in the experiment with SW-620 colon, above 100 µM. In addition, the TGI with HCT-116 colon is 71.2 µM; in the experiment with HOP-92 NSCLC it was above 100 µM; with COLO 205 colon, 70.7 µM.
As for `NC(CSSCC(N)Cc1ccccc1)Cc1ccccc1` (centres undefined), the concentration for total growth inhibition (TGI) is above 100 µM in the experiment on CCRF-CEM leukemia; 63.4 µM in the experiment with M14 melanoma; above 100 µM with HCT-15 colon; above 100 µM in the experiment with SW-620 colon; above 100 µM with HCT-116 colon; above 100 µM in the experiment with COLO 205 colon.
Take `CCOC(=O)c1c(-c2cccc3ccccc23)c(C#N)c(=S)n(C2OC(COC(C)=O)C(OC(C)=O)C(OC(C)=O)C2OC(C)=O)c1C` (centres undefined): the TGI in the experiment on MDA-N, in the experiment with CCRF-CEM leukemia, in the experiment on M14 melanoma, in the experiment with HCT-15 colon, with MDA-MB-435 and in the experiment with HCT-116 colon was above 100 µM throughout. The total growth inhibition concentration (TGI) with HOP-92 NSCLC and in the experiment on COLO 205 colon was above 100 µM each time.
As to `COc1ccc2c(c1)OC[C@@H]1c3cc(O)c(OCc4ccccc4)cc3O[C@H]21`, the TGI in the experiment with CCRF-CEM leukemia is above 100 µM; with M14 melanoma it was 82.6 µM; in the experiment on HCT-15 colon, above 100 µM; with SW-620 colon, 96.2 µM; in the experiment with HCT-116 colon it was above 100 µM; in the experiment with HOP-92 NSCLC, 61.7 µM. This compound showed a TGI with COLO 205 colon of 74.1 µM.
With `O=C(N/N=C/c1cc(Br)cc(Br)c1[O-])c1ccccc1O.O=C(N/N=C/c1cc(Br)cc(Br)c1[O-])c1ccccc1O.[Ni+2]`, the GI50 with CCRF-CEM leukemia is 0.537 µM. Besides, the total growth inhibition concentration (TGI) in the experiment with CCRF-CEM leukemia is above 100 µM; in the experiment on M14 melanoma it was 1.47 µM; in the experiment on HCT-15 colon it was 1.57 µM; in the experiment with SW-620 colon it was 1.94 µM; in the experiment with HCT-116 colon it was 1.55 µM; in the experiment on HOP-92 NSCLC it was 2.02 µM. The compound further showed a total growth inhibition concentration (TGI) in the experiment on COLO 205 colon of 3.22 µM.
Take `COC(=O)C1=C(C(=O)OC)SC2(S1)C(C(=O)OC)=C(C(=O)OC)Sc1c2ssc1=NC(C)(C)C`: the TGI in the experiment with M14 melanoma was determined as 3.15 µM; in the experiment on HCT-15 colon it was 2.19 µM; in the experiment with MDA-MB-435, 3.08 µM; with HS 578T breast, 18.5 µM; with HCT-116 colon it was 2.03 µM; with HOP-92 NSCLC, 2.76 µM. The compound also registered a concentration for total growth inhibition (TGI) in the experiment with COLO 205 colon of 3.22 µM.
For the compound `COC1OC2=CCC3C(=O)NC(=O)C3C2[C@H](OCc2ccccc2)C1OCc1ccccc1` (some centres undefined), the TGI with M14 melanoma was 3.19 µM; in the experiment with HCT-15 colon, 3.86 µM; in the experiment with SW-620 colon, 2.95 µM; in the experiment on HCT-116 colon, 3.21 µM; in the experiment on HOP-92 NSCLC, 4.15 µM.
`Brc1ccc2c(-c3csc(-c4c[nH]c5ccccc45)n3)c[nH]c2c1`: the GI50 in the experiment on MDA-N was 19.2 µM; in the experiment on HCT-15 colon, 15.2 µM. Further, the TGI came out at 39.8 µM with MDA-N; 38.1 µM with CCRF-CEM leukemia; 27.3 µM with M14 melanoma; 28.5 µM in the experiment on HCT-15 colon; 32.9 µM in the experiment on MDA-MB-435; 30.1 µM in the experiment on SW-620 colon. The total growth inhibition concentration (TGI) in the experiment with HCT-116 colon was determined as 29.6 µM; with HOP-92 NSCLC, 33.3 µM; with COLO 205 colon, 25.4 µM.
